Columns and labels:
human KHK-A = human KHK-A (Homo sapiens (Human), UniProt P50053); assay: KHK Biochemical Assay (IC50), ADP-Glo, KHK-A; settings: average of at least two separate assays
Summary of the method: (§1)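 Luminescent ADP-Glo read-out of ADP made by His-tagged KHK (BL21 (DE3) expression, Ni-NTA). Enzyme and compound sat together 30 min before ATP/fructose addition, then reacted 4 h at RT in Hepes pH 7.4 buffer with KCl, MgCl2, Triton-X. Quench 1 h, detection 1 h.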

human KHK-C = human KHK-C (Homo sapiens (Human), UniProt P50053); assay: KHK Biochemical Assay (IC50), ADP-Glo, KHK-C; settings: average of at least two separate assays
Summary of the method: as §1

human KHK-C, sequence (P50053 whole entry): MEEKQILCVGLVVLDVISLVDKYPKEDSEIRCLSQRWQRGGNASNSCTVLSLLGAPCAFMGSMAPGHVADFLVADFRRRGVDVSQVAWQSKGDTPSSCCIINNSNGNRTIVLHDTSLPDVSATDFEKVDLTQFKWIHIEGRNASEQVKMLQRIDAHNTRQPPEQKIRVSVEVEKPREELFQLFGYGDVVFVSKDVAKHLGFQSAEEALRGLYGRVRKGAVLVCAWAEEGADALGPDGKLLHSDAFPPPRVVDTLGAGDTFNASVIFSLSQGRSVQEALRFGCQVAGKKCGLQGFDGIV
human KHK-A, sequence (P50053 other isoform, or with tags, fused parts or gaps): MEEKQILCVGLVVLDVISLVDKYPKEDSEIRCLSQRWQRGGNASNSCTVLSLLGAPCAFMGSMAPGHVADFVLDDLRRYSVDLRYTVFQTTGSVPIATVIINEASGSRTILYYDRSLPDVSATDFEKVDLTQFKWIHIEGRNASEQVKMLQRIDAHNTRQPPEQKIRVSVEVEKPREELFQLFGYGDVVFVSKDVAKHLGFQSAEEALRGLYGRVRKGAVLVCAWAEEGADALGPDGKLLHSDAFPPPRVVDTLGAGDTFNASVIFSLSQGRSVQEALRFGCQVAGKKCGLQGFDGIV

Structure (SMILES) | IC50 (human KHK-A) [nM] | IC50 (human KHK-C) [nM] | IC50 (human KHK-A; ADP-Glo) [nM] | IC50 (human KHK-C; ADP-Glo) [nM]
NC1(c2ccc(-c3nc(N4CCC4C4CCC4)nc4c3CCC4(F)F)cc2)COC1 (stereo not shown) [Example 572, 3-(4-(2-(2-cyclobutylazetidin-1-yl)-7,7-difluoro-6,7-dihydro-5H-cyclopenta[d]pyrimidin-4-yl)phenyl)oxetan-3-amine] | > 100 | 56.3 |  | 
C[C@@H]1N(c2nc(-c3ccc4c(c3)CCC43COC(=O)N3)c3c(n2)C(F)(F)CC3)C[C@@]1(C)O (stereo partly drawn) [Example 576, 5-(7,7-difluoro-2-((2S,3R)-3-hydroxy-2,3-dimethylazetidin-1-yl)-6,7-dihydro-5H-cyclopenta[d]pyrimidin-4-yl)-2,3-dihydrospiro[indene-1,4′-oxazolidin]-2′-one] | > 100 | 6.8 |  | 
CS(=O)(=O)N[C@H]1COc2cc(-c3nc(N4CC[C@@H]4C(F)(F)F)nc4c3CCC4(F)F)ccc21 [Example 577, N—((R)-6-(7,7-difluoro-2-((R)-2-(trifluoromethyl)azetidin-1-yl)-6,7-dihydro-5H-cyclopenta[d]pyrimidin-4-yl)-2,3-dihydrobenzofuran-3-yl)methanesulfonamide] | 2.1 | 0.6 |  | 
NC1(c2ccc(-c3nc(N4CC[C@@H]4C(F)(F)F)nc4c3CCC4(F)F)cc2)CCOC1 (stereo partly drawn) [Example 587, 3-[4-[7,7-difluoro-2-[(2R)-2-(trifluoromethyl)azetidin-1-yl]-5,6-dihydrocyclopenta[d]pyrimidin-4-yl]phenyl]tetrahydrofuran-3-amine] | 0.5 | 0.4 |  | 
NC1(c2ccc(-c3nc(N4CC[C@@H]4C(F)(F)F)nc4c3CCC4(F)F)cc2F)COC1 [Example 589, 3-[4-[7,7-difluoro-2-[(2R)-2-(trifluoromethyl)azetidin-1-yl]-5,6-dihydrocyclopenta[d]pyrimidin-4-yl]-2-fluoro-phenyl]oxetan-3-amine] | 2.7 | 1.4 |  | 
NC1(c2ccc(-c3nc(N4CCC4C(F)F)nc4c3CCC4(F)F)cc2)COC1 (stereo not shown) [Example 678, 3-[4-[2-[2-(difluoromethyl)azetidin-1-yl]-7,7-difluoro-5,6-dihydrocyclopenta[d]pyrimidin-4-yl]phenyl]oxetan-3-amine] | 4.6 | 1.8 |  | 
NC1(c2ccc(-c3nc(N4CCC4C(F)(F)F)nc4c3CCC4(F)F)cc2)COC1 (stereo not shown) [Example 683, 3-[4-[7,7-difluoro-2-[2-(trifluoromethyl)azetidin-1-yl]-5,6-dihydrocyclopenta[d]pyrimidin-4-yl]phenyl]oxetan-3-amine] | 2.4 | 0.9 |  | 
CCN1C(=O)NC2(COc3cc(-c4nc(N5C[C@@H](O)[C@@H]5C)nc5c4CCC5(F)F)ccc32)C1=O (stereo partly drawn) [Example 689, 6-[7,7-difluoro-2-[(2S,3R)-3-hydroxy-2-methyl-azetidin-1-yl]-5,6-dihydrocyclopenta[d]pyrimidin-4-yl]-3′-ethyl-spiro[2H-benzofuran-3,5′-imidazolidine]-2′,4′-dione] | 14.2 | 0.2 |  | 
CC(C)N1C(=O)NC2(COc3cc(-c4nc(N5C[C@@H](O)[C@@H]5C)nc5c4CCC5(F)F)ccc32)C1=O (stereo partly shown) [Example 690] | 45.4 | 0.3 |  | 
O=C1NC(=O)C2(COc3cc(-c4nc(N5CC[C@@H]5C(F)(F)F)nc5c4CCC5(F)F)ccc32)N1 (stereo partly drawn) [Example 703, 6-[7,7-difluoro-2-[(2R)-2-(trifluoromethyl)azetidin-1-yl]-5,6-dihydrocyclopenta[d]pyrimidin-4-yl]spiro[2H-benzofuran-3,5′-imidazolidine]-2′,4′-dione] | 1 | 0.4 |  | 
COc1cc(-c2nc(N3C[C@@H](O)[C@@H]3C)nc3c2CCC3(F)F)cc(S(C)(=N)=O)c1 (stereo partly drawn) [Example 719, (3-(7,7-difluoro-2-((2S,3R)-3-hydroxy-2-methylazetidin-1-yl)-6,7-dihydro-5H-cyclopenta[d]pyrimidin-4-yl)-5-methoxyphenyl)(imino)(methyl)-λ^6-sulfanone] | 32.1 | 21.7 |  | 
Cc1cc(-c2nc(N3C[C@@H](O)[C@@H]3C)nc3c2CCC3(F)F)cc(S(C)(=N)=O)c1 (stereo partly drawn) [Example 720, (3-(7,7-difluoro-2-((2S,3R)-3-hydroxy-2-methylazetidin-1-yl)-6,7-dihydro-5H-cyclopenta[d]pyrimidin-4-yl)-5-methylphenyl)(imino)(methyl)-λ^6-sulfanone] | 11.6 | 8.8 |  | 
NC1(c2ccc(-c3nc(N4CC[C@@H]4C(F)(F)F)nc4c3CCC4(F)F)cc2)CCS(=O)(=O)CC1 [Example 738, (R)-4-amino-4-(4-(7,7-difluoro-2-(2-(trifluoromethyl)azetidin-1-yl)-6,7-dihydro-5H-cyclopenta[d]pyrimidin-4-yl)phenyl)tetrahydro-2H-thiopyran 1,1-dioxide] | 2 | 2 |  | 
COC(=O)NC1COc2cc(-c3nc(N4C[C@@H](O)[C@@H]4C)nc4c3CCC4(F)F)cc(OC)c21 (stereo partly drawn) [Example 824, Methyl N-[6-[7,7-difluoro-2-[(2S,3R)-3-hydroxy-2-methyl-azetidin-1-yl]-5,6-dihydrocyclopenta[d]pyrimidin-4-yl]-4-methoxy-2,3-dihydrobenzofuran-3-yl]carbamate] |  |  | 91.6 | 8.6
COc1cc(-c2nc(N3CC[C@@H]3C(F)(F)F)nc3c2CCC3(F)F)ccc1C1(N)COC1 [Example 837, (R)-3-(4-(7,7-difluoro-2-(2-(trifluoromethyl)azetidin-1-yl)-6,7-dihydro-5H-cyclopenta[d]pyrimidin-4-yl)-2-methoxyphenyl)oxetan-3-amine] |  |  | 1 | 0.7
C[C@H]1[C@H](O)CN1c1nc(-c2ccc(C3(N)CCOCC3)cc2)c2c(n1)C(F)(F)CC2 [Example 838, (2S,3R)-1-(4-(4-(4-aminotetrahydro-2H-pyran-4-yl)phenyl)-7,7-difluoro-6,7-dihydro-5H-cyclopenta[d]pyrimidin-2-yl)-2-methylazetidin-3-ol] |  |  | 4.8 | 4.1

Continued, values first:

IC50 (human KHK-A) [nM] | IC50 (human KHK-C) [nM] | IC50 (human KHK-A; ADP-Glo) [nM] | IC50 (human KHK-C; ADP-Glo) [nM] | Structure (SMILES)
11.1 | 9.4 |  |  | C[C@H]1[C@H](O)CN1c1nc(-c2cc3c(s2)CCC3NS(C)(=O)=O)c2c(n1)C(F)(F)CC2 (stereo partly shown) [Example 574]
52.4 | 5.9 |  |  | C[C@@H]1N(c2nc(-c3ccc4c(c3)OC[C@@H]4NS(C)(=O)=O)c3c(n2)C(F)(F)CC3)C[C@@]1(C)O [Example 575, N—((R)-6-(7,7-difluoro-2-((2S,3R)-3-hydroxy-2,3-dimethylazetidin-1-yl)-6,7-dihydro-5H-cyclopenta[d]pyrimidin-4-yl)-2,3-dihydrobenzofuran-3-yl)methanesulfonamide]
22.5 | 6.1 |  |  | C[C@H]1[C@H](O)CN1c1nc(-c2ccc3c(c2)COC[C@H]3NS(C)(=O)=O)c2c(n1)C(F)(F)CC2 [Example 578, N—((S)-7-(7,7-difluoro-2-((2S,3R)-3-hydroxy-2-methylazetidin-1-yl)-6,7-dihydro-5H-cyclopenta[d]pyrimidin-4-yl)isochroman-4-yl)methanesulfonamide]
25 | 2.7 |  |  | C[C@H]1[C@H](O)CN1c1nc(-c2ccc3c(c2)COC[C@@H]3NS(=O)(=O)C2CC2)c2c(n1)C(F)(F)CC2 [Example 579, N—((R)-7-(7,7-difluoro-2-((2S,3R)-3-hydroxy-2-methylazetidin-1-yl)-6,7-dihydro-5H-cyclopenta[d]pyrimidin-4-yl)isochroman-4-yl)cyclopropanesulfonamide]
3.1 | 0.8 |  |  | CS(=O)(=O)N[C@H]1COCc2cc(-c3nc(N4CC[C@@H]4C(F)(F)F)nc4c3CCC4(F)F)ccc21 [Example 581, N—((R)-7-(7,7-difluoro-2-((R)-2-(trifluoromethyl)azetidin-1-yl)-6,7-dihydro-5H-cyclopenta[d]pyrimidin-4-yl)isochroman-4-yl)methanesulfonamide]
7 | 0.8 |  |  | C[C@H]1[C@H](F)CN1c1nc(-c2ccc3c(c2)COC[C@@H]3NS(C)(=O)=O)c2c(n1)C(F)(F)CC2 [Example 582, N—((R)-7-(7,7-difluoro-2-((2S,3R)-3-fluoro-2-methylazetidin-1-yl)-6,7-dihydro-5H-cyclopenta[d]pyrimidin-4-yl)isochroman-4-yl)methanesulfonamide]
8.7 | 1.3 |  |  | C[C@H]1[C@@H](F)CN1c1nc(-c2ccc3c(c2)COC[C@@H]3NS(C)(=O)=O)c2c(n1)C(F)(F)CC2 [Example 583, N—((R)-7-(7,7-difluoro-2-((28,38)-3-fluoro-2-methylazetidin-1-yl)-6,7-dihydro-5H-cyclopenta[d]pyrimidin-4-yl)isochroman-4-yl)methanesulfonamide]
19.8 | 2.6 |  |  | C[C@@H]1N(c2nc(-c3ccc4c(c3)COC[C@@H]4NS(C)(=O)=O)c3c(n2)C(F)(F)CC3)CC1(F)F [Example 584, N—((R)-7-(2-((S)-3,3-difluoro-2-methylazetidin-1-yl)-7,7-difluoro-6,7-dihydro-5H-cyclopenta[d]pyrimidin-4-yl)isochroman-4-yl)methanesulfonamide]
41.6 | 21.2 |  |  | C[C@H]1[C@H](O)CN1c1nc(-c2ccc3c(c2)OC[C@@H]3NC2COC2)c2c(n1)C(F)(F)CC2 [Example 585, (2S,3R)-1-[7,7-difluoro-4-[(3R)-3-(oxetan-3-ylamino)-2,3-dihydrobenzofuran-6-yl]-5,6-dihydrocyclopenta[d]pyrimidin-2-yl]-2-methyl-azetidin-3-ol]
28.3 | 23.2 |  |  | C[C@H]1[C@H](O)CN1c1nc(-c2ccc(C(F)F)c(S(C)(=N)=O)c2)c2c(n1)C(F)(F)CC2 (stereo partly drawn) [Example 721, (5-(7,7-difluoro-2-((2S,3R)-3-hydroxy-2-methylazetidin-1-yl)-6,7-dihydro-5H-cyclopenta[d]pyrimidin-4-yl)-2-(difluoromethyl)phenyl)(imino)(methyl)-λ^6-sulfanone]

Reference: patent publication US12410160B2 (Gilead Sciences, Inc., priority 2021, dated 2025)
